Assays:
[1] = tested on: Culex pipiens pallens; experiment: Test Example 5: larvae in treated water, Culex pipiens pallens; type: in vivo; conditions: 24 h, active ingredient concentration 3.5 ppm in water, 20 last-instar larvae, one day after, read-out: pest death rate
Procedure: (§1) A formulation of any one of the present compounds (1) to (10) obtained according to Formulation Example 15 was diluted with water so that the active ingredient concentration was 500 ppm to obtain a test solution.
To 100 mL of ion-exchanged water, 0.7 ml of the test solution was added (active ingredient concentration: 3.5 ppm). Into the solution, 20 last-instar larvae of Culex pipiens pallens were released. One day after, the number of surviving Culex pipiens pallens was examined and the death rate of the pest was calculated.

[2] = tested on: Blattalla germanica; experiment: Test Example 4: filter paper with sucrose bait, Blattalla germanica; type: in vivo; conditions: 500 ppm, 0.7 ml on filter paper; 2 male imagoes; after 6 days
Procedure: as §1
A filter paper having a diameter of 5.5 cm was spread on the bottom of a polyethylene cup having a diameter of 5.5 cm and 0.7 ml of the test solution was added dropwise onto the filter paper. As a bait 30 mg of sucrose was uniformly placed on the filter paper. Into the polyethylene cup, 2 male imagoes of Blattalla germanica were released and the cup was sealed with a lid. After 6 days, the number of surviving Blattalla germanica was examined and the death rate of the pest was calculated.

[3] = tested on: brown rice planthopper; experiment: Test Example 6: foliar spray on rice plants versus comparative compound, brown rice planthopper; type: in vivo, Nilaparvata lugens; conditions: 175 ppm, sprayed 20 ml/cup on rice plants; 30 first-instar larvae released; counted after 6 days at 25° C.
Procedure: In this Test Example, as a comparative compound, a compound disclosed in JP-A 2005-179321 (Compound No. 37 in Table 2) and represented by the formula:
[drawing 112] (hereinafter, referred to as the comparative compound (1)) was used.
Each formulation of the present compound (6) and the comparative compound (1) was obtained according to Formulation Example 15. The formulation was diluted so that the active ingredient concentration was 175 ppm to obtain a test solution.
At the same time, 50 g of culture soil, Bonsol No. 2 (manufactured by Sumitomo Chemical Co., Ltd.) was put into a polyethylene cup, and 10 to 15 seeds of rice were planted therein. The rice plants were grown until the second foliage leaf was developed, and then cut so as to have the same height of 5 cm. The test solution was sprayed on the rice plants in an amount of 20 ml/cup. After the test solution sprayed on the rice plants was dried, the rice plants were placed in a plastic cup for the purpose of preventing test worms from escaping. Thirty first-instar larvae of brown rice planthopper were released into the cup, and the cup was sealed with a lid. Then the cup was placed in a greenhouse at 25° C. for 6 days. Then, the number of parasitic brown rice planthoppers on the rice plants was examined.

Structure (SMILES)	pest or weed control at 3.5 ppm [1]	pest death rate [2]	number of the parasitic pests [3]
NC(=O)C(Cl)(Cc1ccccc1C(F)(F)F)S(=O)(=O)CCC(F)(F)F (stereo not drawn) [present compound (10), 2-chloro-3-(2-trifluoromethylphenyl)-2-(3,3,3-trifluoropropylsulfonyl)propaneamide]	≥ 95%		
CC(C(N)=O)(c1cc(F)c(F)c(F)c1)S(=O)(=O)CCC(F)(F)F (stereo not drawn) [present compound (2), 2-(3,4,5-trifluorophenyl)-2-(3,3,3-trifluoropropylsulfonyl)propaneamide]		100%	
NC(=O)C(F)(c1ccc(Cl)c(F)c1)S(=O)(=O)CCC(F)(F)F (stereo not drawn) [present compound (3), 2-(4-chloro-3-fluorophenyl)-2-fluoro-2-(3,3,3-trifluoropropylsulfonyl)acetamide]	≥ 95%	100%	
N#CC(SCCC(F)(F)F)c1ccc(Cl)cc1 (stereo not drawn) [comparative compound (1), reference compound]			≥ 21
NC(=O)C(SCCC(F)(F)F)c1ccc(Cl)cc1 (stereo not drawn) [present compound (6), 2-(4-chlorophenyl)-2-(3,3,3-trifluoropropylsulfanyl)acetamide]			≤ 3
NC(=O)C(F)(c1cc(F)c(F)c(F)c1)S(=O)(=O)CCC(F)(F)F (stereo not drawn) [present compound (1), 2-fluoro-2-(3,3,3-trifluoropropylsulfonyl)-2-(3,4,5-trifluorophenyl)acetamide]	≥ 95%	100%	
NC(=O)C(F)(c1ccc(C(F)(F)F)cc1)S(=O)(=O)CCC(F)(F)F (stereo not drawn) [present compound (5), 2-fluoro-2-(3,3,3-trifluoropropylsulfonyl)-2-(4-trifluoromethylphenyl)acetamide]	≥ 95%	100%	
NC(=O)C(c1ccc(Cl)cc1)S(=O)(=O)CCC(F)(F)F (stereo not drawn) [present compound (7), 2-(4-chlorophenyl)-2-(3,3,3-trifluoropropylsulfonyl)acetamide]	≥ 10%		
NC(=O)C(Cl)(Cc1cccc(C(F)(F)F)c1)S(=O)(=O)CCC(F)(F)F (stereo not drawn) [present compound (9), 2-chloro-3-(3-trifluoromethylphenyl)-2-(3.3.3-trifluoropropylsulfonyl)propaneamide]	≥ 10%	≥ 50%	
NC(=O)C(F)(c1ccc(Cl)cc1)S(=O)(=O)CCC(F)(F)F (stereo not drawn) [present compound (4), 2-(4-chlorophenyl)-2-fluoro-2-(3,3,3-trifluoropropylsulfonyl)acetamide]	≥ 95%	100%	
